Measured values reported in patent US20220289685A1, “ANTIMALARIAL HEXAHYDROPYRIMIDINE ANALOGUES” (UCB BIOPHARMA SRL, priority 2019, published 2022).
Where a name gives a salt, the structure may show the parent alone.

test system: Plasmodium falciparum 3D7 strain; assay: P. falciparum 3D7 asexual blood stage assay (SYBR green readout); assay type: cell-based; settings: Plasmodium falciparum, 3D7, Erythrocyte, 72 h
How it was run: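 P. falciparum 3D7 in A+ erythrocytes (5% haematocrit, 0.5% parasitaemia) exposed 72 h at 37 °C under 1% O2/3% CO2 to 20-point 1.5-fold titrations, 50,000–15 nM in 0.5% DMSO. SYBR green lysis overnight, fluorescence 485/528 nm; normalized to mefloquine and DMSO, EC50 from biphasic two-site fit.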

| Structure (SMILES) | IC50 |
| --- | --- |
| C[C@@H]1C[C@H](N2C(=N)N[C@](C)(c3cccc(NC(=O)c4ccccc4S(C)(=O)=O)c3Cl)CC2=O)CCO1 (relative stereo) [Example 81, N-(2-Chloro-3-{(4S)-2-imino-4-methyl-1-[(2R*,4R*)-2-methyl-tetrahydropyran-4-yl]-6-oxo-hexahydropyrimidin-4-yl}phenyl)-2-(methylsulfonyl)benzamide trifluoroacetic acid salt] | 182 nM |
| Cc1ccncc1C(=O)Nc1cccc([C@]2(C)CC(=O)N([C@@H]3CCO[C@H](C)C3)C(=N)N2)c1Cl (relative stereo) [Example 82, N-(2-Chloro-3-{(4S)-2-imino-4-methyl-1-[(2R*,4R*)-2-methyl-tetrahydropyran-4-yl]-6-oxo-hexahydropyrimidin-4-yl}phenyl)-4-methylpyridine-3-carboxamide trifluoroacetic acid salt] | 35 nM |
| C[C@@H]1C[C@H](N2C(=N)N[C@](C)(c3cccc(NC(=O)c4cc(C(F)(F)F)ccc4F)c3Cl)CC2=O)CCO1 (relative stereo) [Example 83, N-(2-Chloro-3-{(4S)-2-imino-4-methyl-1-[(2R*,4R*)-2-methyl-tetrahydropyran-4-yl]-6-oxo-hexahydropyrimidin-4-yl}phenyl)-2-fluoro-5-(trifluoromethyl)-benzamide trifluoroacetic acid salt] | 18 nM |
| C[C@@H]1CC(N2C(=N)N[C@](C)(c3cccc(NC(=O)c4cc(Cl)ccc4OC(F)F)c3Cl)CC2=O)CCO1 (relative stereo) [Example 84, 5-Chloro-N-(2-chloro-3-{(4S)-2-imino-4-methyl-1-[(2R*,4R*)-2-methyltetrahydropyran-4-yl]-6-oxo-hexahydropyrimidin-4-yl]phenyl)-2-(difluoromethoxy)benzamide trifluoroacetic acid salt] | 37 nM |
| COc1ccc(S(C)(=O)=O)cc1C(=O)Nc1cccc([C@]2(C)CC(=O)N([C@@H]3CCO[C@H](C)C3)C(=N)N2)c1Cl (relative stereo) [Example 85, N-(2-Chloro-3-{(4S)-2-imino-4-methyl-1-[(2R*,4R*)-2-methyl-tetrahydropyran-4-yl]-6-oxo-hexahydropyrimidin-4-yl}phenyl)-2-methoxy-5-(methylsulfonyl)-benzamide trifluoroacetic acid salt] | 76 nM |
| C[C@@H]1C[C@H](N2C(=N)N[C@](C)(c3cccc(NC(=O)c4nc5ccccc5nc4C(F)(F)F)c3Cl)CC2=O)CCO1 (relative stereo) [Example 88, N-(2-Chloro-3-{(4S)-2-imino-4-methyl-1-[(2R*,4R*)-2-methyl-tetrahydropyran-4-yl]-6-oxo-hexahydropyrimidin-4-yl]phenyl)-3-(trifluoromethyl)quinoxaline-2-carboxamide trifluoroacetic acid salt] | 46 nM |
| C[C@@H]1C[C@H](N2C(=N)N[C@](C)(c3cccc(NC(=O)c4ccncc4C(F)(F)F)c3Cl)CC2=O)CCO1 (relative stereo) [Example 89, N-(2-Chloro-3-{(4S)-2-imino-4-methyl-1-[(2R*,4R*)-2-methyl-tetrahydropyran-4-yl]-6-oxo-hexahydropyrimidin-4-yl}phenyl)-3-(trifluoromethyl)pyridine-4-carboxamide trifluoroacetic acid salt] | 373 nM |
| C[C@@H]1C[C@H](N2C(=N)N[C@](C)(c3cccc(NC(=O)c4cccc(-n5cccn5)c4)c3Cl)CC2=O)CCO1 (relative stereo) [Example 90, N-(2-Chloro-3-{(4S)-2-imino-4-methyl-1-[(2R*,4R*)-2-methyl-tetrahydropyran-4-yl]-6-oxo-hexahydropyrimidin-4-yl}phenyl)-3-(pyrazol-1-yl)benzamide trifluoroacetic acid salt] | 23 nM |
| C[C@@H]1C[C@H](N2C(=N)N[C@](C)(c3cccc(NC(=O)c4cncc(N(C)C)n4)c3Cl)CC2=O)CCO1 (relative stereo) [Example 91, N-(2-Chloro-3-{(4S)-2-imino-4-methyl-1-[(2R*,4R*)-2-methyl-tetrahydropyran-4-yl]-6-oxo-hexahydropyrimidin-4-yl]phenyl)-6-(dimethylamino)pyrazine-2-carboxamide hydrochloride] | 116 nM |
| C[C@@H]1C[C@H](N2C(=N)N[C@](C)(c3cccc(NC(=O)c4ncc(Cl)cn4)c3Cl)CC2=O)CCO1 (relative stereo) [Example 92, 5-Chloro-N-(2-chloro-3-{(4S)-2-imino-4-methyl-1-[(2R*,4R*)-2-methyltetrahydropyran-4-yl]-6-oxo-hexahydropyrimidin-4-yl]phenyl)-pyrimidine-2-carboxamide hydrochloride] | 28 nM |
| C[C@@H]1C[C@H](N2C(=N)N[C@](C)(c3cccc(NC(=O)c4cc(N5CCOCC5)ccn4)c3Cl)CC2=O)CCO1 (relative stereo) [Example 93, N-(2-Chloro-3-{(4S)-2-imino-4-methyl-1-[(2R*,4R*)-2-methyl-tetrahydropyran-4-yl]-6-oxo-hexahydropyrimidin-4-yl]phenyl)-4-(morpholin-4-yl)pyridine-2-carboxamide hydrochloride] | 47 nM |
| C[C@@H]1C[C@H](N2C(=N)N[C@](C)(c3cccc(NC(=O)c4ncc(F)cc4C(F)(F)F)c3Cl)CC2=O)CCO1 (relative stereo) [Example 94, N-(2-Chloro-3-{(4S)-2-imino-4-methyl-1-[(2R*,4R*)-2-methyl-tetrahydropyran-4-yl]-6-oxo-hexahydropyrimidin-4-yl}phenyl)-5-fluoro-3-(trifluoromethyl)-pyridine-2-carboxamide hydrochloride] | 81 nM |
| C[C@@H]1C[C@H](N2C(=N)N[C@](C)(c3cccc(NC(=O)c4cc(C#N)cc(C(F)(F)F)c4)c3Cl)CC2=O)CCO1 (relative stereo) [Example 95, N-(2-Chloro-3-{(4S)-2-imino-4-methyl-1-[(2R*,4R*)-2-methyl-tetrahydropyran-4-yl]-6-oxo-hexahydropyrimidin-4-yl}phenyl)-3-cyano-5-(trifluoromethyl)-benzamide hydrochloride] | 34 nM |
| C[C@@H]1C[C@H](N2C(=N)N[C@](C)(c3cccc(NC(=O)c4cnccc4F)c3Cl)CC2=O)CCO1 (relative stereo) [Example 96, N-(2-Chloro-3-{(4S)-2-imino-4-methyl-1-[(2R*,4R*)-2-methyl-tetrahydropyran-4-yl]-6-oxo-hexahydropyrimidin-4-yl}phenyl)-4-fluoropyridine-3-carboxamide hydrochloride] | 565 nM |
| C[C@@H]1C[C@H](N2C(=N)N[C@](C)(c3cccc(NC(=O)c4cccc(Cl)c4F)c3Cl)CC2=O)CCO1 (relative stereo) [Example 97, 3-Chloro-N-(2-chloro-3-{(4S)-2-imino-4-methyl-1-[(2R* ,4R*)-2-methyltetrahydropyran-4-yl]-6-oxo-hexahydropyrimidin-4-yl]phenyl)-2-fluorobenzamide hydrochloride] | 21 nM |
| C[C@@H]1C[C@H](N2C(=N)N[C@](C)(c3cccc(NC(=O)c4cc(C#N)ccc4Cl)c3Cl)CC2=O)CCO1 (relative stereo) [Example 98, 2-Chloro-N-(2-chloro-3-{(4S)-2-imino-4-methyl-1-[(2R*,4R*)-2-methyltetrahydropyran-4-yl]-6-oxo-hexahydropyrimidin-4-yl}phenyl)-5-cyanobenzamide hydrochloride] | 45 nM |
| C[C@@H]1C[C@H](N2C(=N)N[C@](C)(c3cccc(NC(=O)c4cc(F)cc(C#N)c4)c3Cl)CC2=O)CCO1 (relative stereo) [Example 99, N-(2-Chloro-3-{(4S)-2-imino-4-methyl-1-[(2R*,4R*)-2-methyl-tetrahydropyran-4-yl]-6-oxo-hexahydropyrimidin-4-yl}phenyl)-3-cyano-5-fluorobenzamide hydrochloride] | 18 nM |
| C[C@@H]1C[C@H](N2C(=N)N[C@](C)(c3cccc(NC(=O)c4ncc(F)cc4F)c3Cl)CC2=O)CCO1 (relative stereo) [Example 100, N-(2-Chloro-3-{(4S)-2-imino-4-methyl-1-[(2R*,4R*)-2-methyl-tetrahydropyran-4-yl]-6-oxo-hexahydropyrimidin-4-yl}phenyl)-3,5-difluoropyridine-2-carboxamide hydrochloride] | 33 nM |
| C[C@@H]1C[C@H](N2C(=N)N[C@](C)(c3cccc(NC(=O)c4ccc(F)cc4OC(F)(F)F)c3Cl)CC2=O)CCO1 (relative stereo) [Example 102, N-(2-Chloro-3-{(4S)-2-imino-4-methyl-1-[(2R*,4R*)-2-methyl-tetrahydropyran-4-yl]-6-oxo-hexahydropyrimidin-4-yl}phenyl)-4-fluoro-2-(trifluoromethoxy)-benzamide hydrochloride] | 35 nM |

same assay, conditions: Plasmodium falciparum, Erythrocyte; P. falciparum 3D7 in human erythrocytes, 72 h incubation, SYBR green fluorescence; read-out: IC50

| Structure (SMILES) | IC50 |
| --- | --- |
| C[C@@H]1C[C@H](N2C(=N)N[C@](C)(c3cccc(NC(=O)c4cccc5c4OCO5)c3Cl)CC2=O)CCO1 (relative stereo) [Example 86, N-(2-Chloro-3-{(4S)-2-imino-4-methyl-1-[(2R*,4R*)-2-methyl-tetrahydropyran-4-yl]-6-oxo-hexahydropyrimidin-4-yl]phenyl)-1,3-benzodioxole-4-carboxamide trifluoroacetic acid salt] | 10 nM |
| COc1ccc(F)cc1C(=O)Nc1cccc([C@]2(C)CC(=O)N([C@@H]3CCO[C@H](C)C3)C(=N)N2)c1Cl (relative stereo) [Example 87, N-(2-Chloro-3-{(4S)-2-imino-4-methyl-1-[(2,R*,4R*)-2-methyl-tetrahydropyran-4-yl]-6-oxo-hexahydropyrimidin-4-yl}phenyl)-5-fluoro-2-methoxybenzamide trifluoroacetic acid salt] | 18 nM |
| C[C@@H]1C[C@H](N2C(=N)N[C@](C)(c3cccc(NC(=O)c4c(F)cc(F)cc4F)c3Cl)CC2=O)CCO1 (relative stereo) [Example 101, N-(2-Chloro-3-{(4S)-2-imino-4-methyl-1-[(2,R*,4R*)-2-methyl-tetrahydropyran-4-yl]-6-oxo-hexahydropyrimidin-4-yl]phenyl)-2,4,6-trifluorobenzamide hydrochloride] | 85 nM |
